This passage reports IC50 and inhibition results from ChEMBL document CHEMBL5131413, “Cytotoxic effects of the biflavonoids isolated from Selaginella trichoclada on MCF-7 cells and its potential mechanism” (Bioorg Med Chem Lett, 2022).

Calls of active or inactive are those of the source. The rule behind the calls is not given here.

What all share (type): functional, cell-based
Assay [1] concerns MCF7. Nature of the assay: Cytotoxicity against human MCF7 cells measured after 24 hrs by MTT assay. As to conditions: MCF7, 24 h. A general note: Formazan colour is commonly taken as a measure of viable cells.
Assay [2] relates to MCF7. Nature of the assay: Downregulation of ACSL4 gene in human MCF7 cells at 5 uM by heat map analysis.
Assay [3] concerns MCF7. Kind of assay: Downregulation of LPCAT3 gene in human MCF7 cells at 5 uM by heat map analysis.
Assay [4] deals with MCF7. Nature of the assay: Downregulation of STEAP3 gene in human MCF7 cells at 5 uM by heat map analysis.
In assay [5] the test system is MCF7. Nature of the assay: Downregulation of TP53 gene in human MCF7 cells at 5 uM by heat map analysis.
Assay [6] relates to MCF7. Nature of the assay: Downregulation of NOXA1 gene in human MCF7 cells at 5 uM by heat map analysis.
Assay [7] has as its system MCF7. Kind of assay: Downregulation of ATG7 gene in human MCF7 cells at 5 uM by heat map analysis.
Assay [8] has as its system MCF7. Nature of the assay: Downregulation of ACSL5 gene in human MCF7 cells at 5 uM by heat map analysis.
The test system of assay [9] is MCF7. Kind of assay: Downregulation of NOXO1 gene in human MCF7 cells at 5 uM by heat map analysis.

Usually IC50 stands for the concentration that inhibits the measured activity by half. The low end stands for inhibition by little substance, the high end for a need for much substance. `O=c1[nH]cc(F)c(=O)[nH]1` [FLUOROURACIL] had an IC50 in the assay with MCF7 [1] of 2.2 µM.

For `COc1cc(O)c2c(=O)cc(-c3ccc(O)c(-c4c(O)cc5oc(-c6ccc(O)cc6)cc(=O)c5c4OC)c3)oc2c1`, the inhibition entry in the assay with MCF7 [2], in the assay with MCF7 [3], with MCF7 [4], in the assay with MCF7 [5], with MCF7 [6] and in the assay with MCF7 [7] was “Active” throughout. Also, the inhibition result with MCF7 [8] and in the assay with MCF7 [9] was “Active” throughout. In the assay with MCF7 [1], the IC50 was 6.9 µM.

For `Cc1c(O)cc2c(c1O)C(=O)C[C@H](c1ccc(Oc3cc(-c4cc(=O)c5c(O)cc(O)cc5o4)ccc3O)cc1)O2`, the IC50 in the assay with MCF7 [1] came out at 32.2 µM. `O=C1C[C@H](c2ccc(Oc3cc(-c4cc(=O)c5c(O)cc(O)cc5o4)ccc3O)cc2)Oc2cc(O)cc(O)c21` had an IC50 with MCF7 [1] of 7.7 µM. Same read-out and setting: under `O=c1cc(-c2ccc(Oc3cc(-c4cc(=O)c5c(O)cc(O)cc5o4)ccc3O)cc2)oc2cc(O)cc(O)c12` [OCHNAFLAVONE] stands 54.5 µM. In turn, `O=C1CC(c2ccc(O)c(-c3c(O)cc4c(c3O)C(=O)CC(c3ccc(O)cc3)O4)c2)Oc2cc(O)cc(O)c21` (stereo not drawn) showed an IC50 in the assay with MCF7 [1] of 71.2 µM. In the assay on MCF7 [1], `COc1ccc(-c2cc(=O)c3c(O)cc(O)c(-c4cc(-c5cc(=O)c6c(O)cc(O)cc6o5)ccc4O)c3o2)cc1` [PODOCARPUSFLAVONE A] showed an IC50 of 35.1 µM. The same measure, in the same setting: the same measure for `COc1cc(O)c2c(=O)cc(-c3ccc(O)c(-c4c(O)cc(O)c5c(=O)cc(-c6ccc(O)cc6)oc45)c3)oc2c1` [SEQUOIAFLAVONE]: 58.4 µM; for `COc1ccc(-c2cc(=O)c3c(O)cc(O)cc3o2)cc1-c1c(O)cc(O)c2c(=O)cc(-c3ccc(O)cc3)oc12` [BILOBETIN]: 26.5 µM; for `O=c1cc(-c2ccc(O)c(-c3c(O)cc(O)c4c(=O)cc(-c5ccc(O)cc5)oc34)c2)oc2cc(O)cc(O)c12` [AMENTOFLAVONE]: 75.4 µM.
